Test results reported in paper PMC5844530, “Fosmetpantotenate (RE-024), a phosphopantothenate replacement therapy for pantothenate kinase-associated neurodegeneration: Mechanism of action and efficacy in nonclinical models” (PLoS ONE, 2018).
Values belong to the compound of their own block, whether it stands above or below them.

Tests used:
in vitro = settings: pH 7.4, In Vitro Measured Papp
Method: (§4) Permeability studies were performed after 2 days of co-culture with rat astrocytes. […] In each filter used for transport, a paracellular marker was included as an internal control to monitor the integrity of the cell monolayer. The day of the experiment, culture medium was removed and cells on Transwell inserts were pre-incubated for 30 min with Hank's Balanced Salt Solution (HBSS) containing 20 mM Hepes pH 7.4 and 0.1% bovine serum albumin (BSA). […] Aliquots from the basal compartment were taken after 1 h; fluorescence was measured using a fluorescence detector. The permeability coefficient of the total system was calculated as follows: P[cm/s]=Vd×ΔMr/A×Md×Δt Where:
(§5) To correct for the contribution of the porous polycarbonate membrane of the filter in the absence of cells, the permeability was also determined for the cell-free system. Contribution of the endothelial cell monolayer to the permeability of the cell and filter system was determined by the following equation: 1/Pe=1/Pt-1/Pf Where the total permeability of the system is denoted as Pt, the cell-free filter as Pf, and the endothelial cell layer alone as Pe. The total resistance of the system towards passage of a substance is composed of 2 resistances in series: that of the cell monolayer and that of the filter; permeability is estimated as 1/resistance [27]. […] Mass balance was determined based on the amount of compound recovered in the donor and receiver chamber at the end of the assay relative to the amount added to the donor chamber at time 0.

liver and brain CoA = assay: Labeled experiments: incorporation of isotopically labeled fosmetpantotenate into CoA; type: in vivo, mouse; settings: for Liver CoA (%) +4 AMU / Liver CoA (%) +6 AMU / Liver CoA (%) Unlabeled: 500 mg/kg PO
From the text: Fosmetpantotenate was labeled with three ^13C and one ^15N in the PA moiety and with one ^18O in the phosphate moiety, as indicated in Fig 10. The premise of this experiment is the following: if PPA incorporated into CoA originates from fosmetpantotenate metabolism, then all isotope labels (including the ^18O) will be retained in the CoA molecule, resulting in an increase in molecular weight of 6 atomic mass units (AMU) with respect to unlabeled CoA ([M+H]^+ = 774.3 vs 768.3, respectively; Fig 10, Path A). However, if fosmetpantotenate is hydrolyzed to PA, and PA is then re-phosphorylated by WT PanK to yield PPA, or if the ^18O is exchanged with water, then the ^18O would be lost in the process, resulting in a CoA molecule with a 4-AMU increase in molecular weight over unlabeled CoA ([M+H]^+ = 772.3 vs 768.3, respectively, […], Path B). CoA derived from endogenous PA/PPA will have the unchanged molecular weight ([M+H]^+ = 768.3).
Animal phase: C57BL6N mice, 8-week old and 19 to 21 g obtained from Charles River (Como, Italy) were used in these studies. One group of mice (N = 3 per time point) received a single oral dose of 500 mg/kg isotopically labeled fosmetpantotenate dissolved in 20% hydroxypropyl-β-cyclodextrin. Another set of mice (N = 8 per time point) received a direct administration of isotopically labeled fosmetpantotenate at 125 μg (25 mg/mL of aCSF containing 147 mM NaCl, 3.0 mM KCl, 1.2 mM CaCl2, and 1.2 mM MgCl2) via cannula into striatum. Brain, liver, and blood samples were collected at pre-dose, 6 h, 12 h (brain only), and 24 h, and were snap frozen in liquid nitrogen.
Two additional groups of mice (N = 6 per time point for each group) received 3 daily doses (8 am, 2 pm, and 8 pm to mimic an anticipated human dosing schedule) of isotopically labeled fosmetpantotenate at either 1.25 μg (0.625 mg/mL aCSF) or 12.5 μg (6.25 mg/mL aCSF) via ICV infusion cannula (2 μL), for up to 10 consecutive days. Brain (striatum) samples were collected at pre-dose, and at 12 h following the third dose on days 1, 3, 7, and 10, and were snap frozen in liquid nitrogen.
Sample processing: Brain (striatum) and liver tissues were homogenized in a Precellys homogenizer (Bertin technologies, Montigny-le-Bretonneux, France) with 3 volumes of water for each volume of tissue (1:4 dilution). Protein was precipitated by adding 500 μL methanol to 100 μL of homogenate (1:6 dilution), mixed well, and centrifuged. Blood cells (1 volume) were treated with 1:8 v:v water:methanol (1:10 dilution), mixed, and centrifuged. The supernatants (200 μL for brain and blood cells and 100 μL for liver) were dried under nitrogen, reconstituted with 100 μL ammonium acetate 10 mM (pH ~5), and injected (10 μL) into the LC for high resolution mass spectrometry (HRMS) analyses.
CoA determination: An Acquity UPLC (Waters) system was used. Samples were chromatographed on a Luna C18 column (50 x 2.0 mm; 5 μm), with a 0.4 mL/min flow rate and a 10 μL injection volume. The mobile phases were (A), 10 mM ammonium acetate in water, pH 6.8 and (B) acetonitrile:2-propanol (9:1; v:v). The gradient was started with 2% (B) and was increased linearly to reach 20% (B) at 5 min; the gradient was ramped to reach 90% (B) at 5.1 min and kept isocratic at 90% (B) through 7.1 min.
The detector was a Waters QTOF Synapt mass spectrometer, with an electrospray ion source operating in the positive scanning mode acquiring in full scan mode (accuracy <5 ppm). The following exact masses were determined: 768.1230 for CoA, 772.1301 for CoA +4 AMU, and 774.1344 for CoA +6 AMU.
The CoA levels obtained by MS/MS analyses were corrected for ^18O isotopic incorporation. CoA levels were not adjusted for the 1% and 2% of ^12C and ^14N, respectively, in the labeled fosmetpantotenate. […]

[1] = tested on: porcine brain endothelial cell (PBEC) co-culture model
Method: as §4, §5

[2] = Microdialysis (brain striatal dialysate) in C57Bl6 mice; settings: striatal dialysate; oral dose at 700 mg/kg; all samples; 700 mg/kg
Method: Mice were anesthetized using isoflurane (2%, 800 mL/min O2).
For oral dosing experiments, MetaQuant microdialysis probes (regenerated cellulose membrane, BrainLink, the Netherlands) were inserted into the striatum (3 mm exposed surface). Coordinates for the tips of the probes for mice were anterior-posterior (AP) = +0.8 mm from bregma, lateral (L) = -1.7 mm from midline, and ventral (V) = -4.0 mm from dura, the toothbar set at 0 mm.
Microdialysis animal dosing and sample collection: Adult non-fasted male C57Bl6 mice (20–29 g; Harlan Laboratories, Livermore, CA), and Macaca fascicularis (4–9 kg, 3–6 yr old) were used for the experiments. For oral dosing, fosmetpantotenate was formulated as a solution in 20% hydroxypropyl-beta-cyclodextrin in 50 mM citrate buffer in water pH 5.0 and administered using a dose volume of 10 mL/kg. Mice (N = 6 serially sampled) received fosmetpantotenate as a single oral dose at 700 mg/kg and monkeys received a single oral dose at either 100 mg/kg (N = 4 serially sampled) or 300 mg/kg (N = 2 serially sampled).
Microdialysis: On the morning of the microdialysis experiment, a MetaQuant probe was inserted into the guide shaft targeting the head of the caudate nucleus and perfused at a rate of 0.15 μL/min aCSF containing 0.2% (w/v) BSA, with a carrier flow of 0.8 μL/min of ultrapure water.
A single 30 min pre-dose basal dialysate sample was collected from mice over -0.5 to 0 h, and three 30 min basal samples from monkeys over -1.5 to 0 h. Fosmetpantotenate was administered at t = 0, and 30 min dialysate samples were collected for an additional 4 h for mice and 3 h for monkeys.
Sample preparation for mouse dialysate samples: Concentrations of fosmetpantotenate, PA, and PPA in mouse dialysate were determined by Nextcea, Inc, Woburn, MA, using LC-MS/MS. Standard curves and QC samples containing fosmetpantotenate (D1 and D2) and the surrogate analytes for PA and PPA (^15N/^13C3-PA and ^15N/^13C3-PPA) were prepared fresh in 0.1% formic acid in water. Frozen study mouse dialysate samples were thawed in ice/water bath. Standards, QC samples, and thawed study dialysate samples (20 μL) were mixed with 20 μL 0.1% formic acid in water containing internal standard (50 ng/mL of ^15N/^13C3-fosmetpantotenate) and analyzed by LC-MS/MS.
LC-MS/MS analysis for mouse dialysate samples: Concentrations of fosmetpantotenate, PA, and PPA in dialysate from mice were determined by using LC-MS/MS conditions described for blood PK analysis by Nextcea, except dialysate samples were analyzed using an ACIEX API 5000 and flow rate was increased to 0.6 mL/min.
Quantitation of in vivo samples: Peak areas were integrated using Analyst software (AB Sciex, Concord, Ontario, Canada). Calibration curves for all blood samples from mouse and rat PK studies and mouse dialysate samples were prepared by plotting the analyte to internal standard (^15N/^13C3-fosmetpantotenate) peak area ratio vs concentration.

[3] = Metabolic stability in mouse whole blood; type: in vitro ADME; settings: mouse, blood
Method: (§1) Metabolic stability in blood and liver microsomes: Fosmetpantotenate or its individual diastereomers (5 μM, n = 2, 37°C) were incubated in mouse, rat, cynomolgus monkey, and human whole blood. Samples (50 μL) were taken at 0, 5, 15, 30, and 60 min. Incubations of fosmetpantotenate or its individual diastereomers (1 μM, n = 2, 37°C) in pooled liver microsomes (0.25 mg protein/mL in 0.1 M phosphate buffer pH 7.4) were initiated with the addition of nicotinamide adenine dinucleotide phosphate (NADPH; 1 mM). Aliquots (100 μL) were obtained at 0, 5, 10, 20, and 40 min and added to 150 μL of 0.1% formic acid in acetonitrile-containing carbamazepine (0.5 μM) as an analytical internal standard, centrifuged, and the supernatants analyzed by LC-MS/MS.
(§2) Bioanalysis for determinations of analyte stability: Samples were analyzed using a benchtop tandem quadrupole detector (TQD) mass spectrometer (Waters Ltd, Centennial Park, Hertfordshire). […] Suitable retention and peak shape with separation of the 2 diastereomers were obtained. The chromatography column was a Phenomenex-Kinetex XB C18 (2.10 x 50 mm; 2.6 μm), with a 0.7 mL/min flow rate and a 2 μL injection volume. […] The gradient was initiated with 20% B and increased linearly, reaching 40% B at 0.6 min, followed by 50% B at 0.8 min and by 95% B at 0.9 min. Conditions were kept isocratic through 1.2 min, returned to starting conditions (20% B) at 1.25 min, and maintained at 20% B through 1.5 min before the next injection. Since fosmetpantotenate is a mixture of diastereomers which are resolved chromatographically, the fosmetpantotenate MRM area corresponds to the sum of the MRM areas of the individual diastereomers.
(§3) The percent of compound remaining was determined from the MRM area response in each sample relative to that in the T = 0 samples (normalized for internal standard). Natural log plots of the percent compound remaining over time were used to determine the t½ of compound disappearance using the relationship t½ = -0.693/λ, where λ is the slope of the natural logarithm of the percent compound remaining vs time curve.

[4] = Metabolic stability in rat whole blood; type: in vitro ADME; settings: rat, blood
Method: as §1, §2, §3

[5] = Metabolic stability in monkey whole blood; type: in vitro ADME, cynomolgus monkey; settings: monkey, blood
Method: as §1, with “Samples (50 μL) were taken at 0, 5, 15, 30, and 60 min.” left out
as §2, §3

[6] = Metabolic stability in human whole blood; type: in vitro ADME; settings: human, blood; for Percentage Remaining: 0 h
Method: as §1, §2, §3

[7] = Stability in simulated gastric fluid; type: in vitro ADME; settings: simulated gi fluid, pH 1.2
Method: Stability in simulated gastric fluid: A stock solution of fosmetpantotenate or its individual diastereomers was prepared in 0.1% formic acid in methanol. Simulated gastric fluid, pH 1.2, was prepared with 2 g/L sodium chloride, 3.2 g/L of pepsin, and 0.7% (v/v) HCl. Gastric buffer, pH 1.2, was prepared containing 2 g/L sodium chloride and 0.7% (v/v) HCl. An appropriate aliquot of fosmetpantotenate or individual diastereomers to yield an initial concentration of 10 μM was added to both fluids, and samples were mixed at ~25°C on an orbital shaker. Aliquots (50 μL) were taken at 0, 2, and 4 h; added to 150 μL dimethyl sulfoxide (DMSO) containing an analytical internal standard; vortexed; and analyzed immediately by LC-MS/MS.
as §2, §3

SMILES: Cn1c(=O)c2c(ncn2C)n(C)c1=O [Caffeine]
Papp at 1 h (in vitro): 34.3 ± 3.1 ×10⁻⁶ cm/s

SMILES: COC(=O)C(C)NP(=[18O])(OCC(C)(C)C(O)C(=O)[15NH][13CH2][13CH2][13C](=O)OC)Oc1ccccc1 (centres unmarked) [isotopically-labeled fosmetpantotenate]
Brain CoA (%) +4 AMU (liver and brain CoA; 1.25 μg ICV, dose day 3): 0% | Brain CoA (%) +6 AMU (liver and brain CoA; 1.25 μg ICV, dose day 3): 0% | Brain CoA (%) Unlabeled (liver and brain CoA; 1.25 μg ICV, dose day 3): 100% | Brain CoA (%) +4 AMU (liver and brain CoA; 1.25 μg ICV, dose day 7): 5% | Brain CoA (%) +6 AMU (liver and brain CoA; 1.25 μg ICV, dose day 7): 4% | Brain CoA (%) Unlabeled (liver and brain CoA; 1.25 μg ICV, dose day 7): 91% | Brain CoA (%) +4 AMU (liver and brain CoA; 1.25 μg ICV, dose day 10): 8% | Brain CoA (%) +6 AMU (liver and brain CoA; 1.25 μg ICV, dose day 10): 6% | Brain CoA (%) Unlabeled (liver and brain CoA; 1.25 μg ICV, dose day 10): 86% | Brain CoA (%) +4 AMU (liver and brain CoA; 12.5 μg ICV, dose day 3): 8% | Brain CoA (%) +6 AMU (liver and brain CoA; 12.5 μg ICV, dose day 3): 15% | Brain CoA (%) Unlabeled (liver and brain CoA; 12.5 μg ICV, dose day 3): 77% | Brain CoA (%) +4 AMU (liver and brain CoA; 12.5 μg ICV, dose day 7): 14% | Brain CoA (%) +6 AMU (liver and brain CoA; 12.5 μg ICV, dose day 7): 27% | Brain CoA (%) Unlabeled (liver and brain CoA; 12.5 μg ICV, dose day 7): 59% | Brain CoA (%) +4 AMU (liver and brain CoA; 12.5 μg ICV, dose day 10): 16% | Brain CoA (%) +6 AMU (liver and brain CoA; 12.5 μg ICV, dose day 10): 28% | Brain CoA (%) Unlabeled (liver and brain CoA; 12.5 μg ICV, dose day 10): 56% | Brain CoA (%) +6 AMU (liver and brain CoA; 12.5 μg ICV, dose day 10, listed as isotopically labeled-fosmetpantotenate): ~ 30% | Brain CoA (%) +4 AMU (liver and brain CoA; 125 μg intrastriatally, 6 h): 2.8% | Brain CoA (%) +6 AMU (liver and brain CoA; 125 μg intrastriatally, 6 h): 36.2% | Brain CoA (%) Unlabeled (liver and brain CoA; 125 μg intrastriatally, 6 h): 61% | Brain CoA (%) +4 AMU (liver and brain CoA; 125 μg intrastriatally, 12 h): 3.6% | Brain CoA (%) +6 AMU (liver and brain CoA; 125 μg intrastriatally, 12 h): 46.4% | Brain CoA (%) Unlabeled (liver and brain CoA; 125 μg intrastriatally, 12 h): 50% | Brain CoA (%) +4 AMU (liver and brain CoA; 125 μg intrastriatally, 24 h): 4.3% | Brain CoA (%) +6 AMU (liver and brain CoA; 125 μg intrastriatally, 24 h): 50.7% | Brain CoA (%) Unlabeled (liver and brain CoA; 125 μg intrastriatally, 24 h): 45% | Brain CoA (%) +6 AMU (liver and brain CoA; 125 μg intrastriatally, 24 h, listed as isotopically labeled-fosmetpantotenate): ~ 50% | Liver CoA (%) +4 AMU (liver and brain CoA; 6 h): 1.4% | Liver CoA (%) +6 AMU (liver and brain CoA; 6 h): 40% | Liver CoA (%) Unlabeled (liver and brain CoA; 6 h): 58.6% | Liver CoA (%) +6 AMU (liver and brain CoA; 6 h, listed as isotopically labeled-fosmetpantotenate): ~ 40% | Liver CoA (%) +4 AMU (liver and brain CoA; 24 h): 8.4% | Liver CoA (%) +6 AMU (liver and brain CoA; 24 h): 34% | Liver CoA (%) Unlabeled (liver and brain CoA; 24 h): 58% | Liver CoA (%) +4 AMU (liver and brain CoA; 24 h, listed as isotopically labeled fosmetpantotenate): 8% | incorporation of fosmetpantotenate-derived PPA in brain CoA (liver and brain CoA; 500 mg/kg single oral administration): not observed

SMILES: COC(=O)CCNC(=O)[C@H](O)C(C)(C)COP(=O)(N[C@@H](C)C(=O)OC)Oc1ccccc1 (single isomer, unassigned) [Compound D1]
In Vitro Measured Papp [1]: 4.8 ± 1.8 10^−6 cm/s | Dialysate Conc [2]: < 4.72 nM | Mean half-life [3]: <5 min | Percentage Remaining ([3]; 0 h): 100% | Percentage Remaining ([3]; 5 min): 0% | Percentage Remaining ([3]; 0.25 h): 0% | Mean half-life [4]: <5 min | Percentage Remaining ([4]; 0 h): 100% | Percentage Remaining ([4]; 0.5 h): 0% | Mean half-life [5]: 35 min | Percentage Remaining ([5]; 0 h): 100% | Percentage Remaining ([5]; 5 min): 88% | Mean half-life [6]: 44 min | Percentage Remaining [6]: 100% | half-life (t½) in simulated gastric fluid [7]: > 600 min

SMILES: COC(=O)CCNC(=O)[C@H](O)C(C)(C)COP(=O)(N[C@@H](C)C(=O)OC)Oc1ccccc1 (single isomer, unassigned) [Compound D2]
In Vitro Measured Papp [1]: 4.0 ± 1.3 10^−6 cm/s | Dialysate Conc [2]: < 3.36 nM | Mean half-life [3]: <5 min | Percentage Remaining ([3]; 0 h): 100% | Percentage Remaining ([3]; 5 min): 1% | Percentage Remaining ([3]; 0.25 h): 1% | Mean half-life [4]: <5 min | Percentage Remaining ([4]; 0 h): 100% | Percentage Remaining ([4]; 0.5 h): 0% | Percentage Remaining ([4]; 1 h): 0% | Mean half-life [5]: 17 min | Percentage Remaining ([5]; 0 h): 100% | Percentage Remaining ([5]; 2 h): 1% | Mean half-life [6]: >95 min | Percentage Remaining [6]: 100% | half-life (t½) in simulated gastric fluid [7]: > 600 min

Papp at 1 h (in vitro): 2.2 ± 0.7 ×10⁻⁶ cm/s | blood-brain barrier permeability classification [1]: low end of permeability range
SMILES: OC[C@@H](O)[C@@H](O)[C@H](O)[C@H](O)CO [Mannitol, reference compound]

Papp at 1 h (in vitro): 5.8 ± 1.9 ×10⁻⁶ cm/s | blood-brain barrier permeability classification [1]: moderate permeability range
SMILES: N[C@@H](Cc1ccc(O)c(O)c1)C(=O)O [L-DOPA, S-3,4-dihydroxyphenylalanine, reference compound]
